From US9861099B2, “Composition for enhancing plant disease control effect of monosaccharide” (MITSUI CHEMICALS AGRO, INC., priority 2013, dated 2018)

Key:
Type in all cases: in vivo
[1] = system: Pseudoperonospora cubensis; assay: Cucumber downy mildew (CDM) control test; details: for control effect against cucumber downy mildew: Test Example 10, D-tagatose only
Plasmopara viticola = assay: Grape vine downy mildew (VDM) control test; details: for control effect against grape vine downy mildew: Test Example 10, D-tagatose only
Sphaerotheca cucurbitae = assay: Cucumber powdery mildew (CPM) control test; details: for control effect against cucumber powdery mildew: Test Example 10, D-tagatose only
Puccinia recondita = assay: Wheat brown rust (WR) control test
Phytophthora infestans = details: Test Example 10, D-tagatose only, treatment concentration 5%
[2] = system: Blumeria graminis f sp. hordei; assay: Barley powdery mildew (BPM) control test; details: Test Example 10, D-tagatose only
Experimental: (BPM: Barley Powdery Mildew) Test plants (barley variety: Sekishinryoku) were planted followed by cultivating until the second leaf appeared. In the test, dilutions (5 ml/pot) obtained by diluting with distilled water so that each formula reached a prescribed concentration were sprayed. After inoculating the seedlings one day after spraying by shaking off conidia of Blumeria graminis f sp. hordei onto the seedlings, disease development was investigated 7 days after, and the effects thereof were evaluated. Disease development was evaluated using the following indicators for disease control tests evaluated according to the methods described above. Furthermore, preventive values were calculated based on the disease development.

Phakopsora ampelopsidis = assay: Grape vine rust (VR) control test; details: Test Example 10, D-tagatose only, treatment concentration 5%
Experimental: (VR: Vine Rust) Test plants (grape variety: Neomuscat) were planted followed by cultivating until three to four first leaves appeared. In the test, dilutions (5 ml/pot) obtained by diluting with distilled water so that each formula reached a prescribed concentration were sprayed. After inoculating the seedlings one day after spraying by spraying with 1×10^7 organisms/ml of uredospores of Phakopsora ampelopsidis, the seedlings were allowed to stand for about 24 hours in an inoculation room at a room temperature of 20° C. to 23° C. to promote the onset of disease. Disease development was investigated 12 days after inoculation, and the effects thereof were evaluated. Disease development was evaluated using the following indicators for disease control tests evaluated according to the methods described above. Furthermore, preventive values were calculated based on the disease development.

Phakopsora pachyrhizi = assay: Soybean rust (SR) control test; details: Test Example 10, D-tagatose only, treatment concentration 5%
Botrytis cinerea = assay: Tomato gray mold (GM) control test; details: Test Example 10, D-tagatose only, treatment concentration 5%
Experimental: (GM: Gray Mold) Test plants (tomato variety: Oogata Fukuju) were planted followed by cultivating until three first leaves appeared. In the test, dilutions (5 ml/pot) obtained by diluting with distilled water so that each formula reached a prescribed concentration were sprayed. After inoculating the seedlings one day after spraying by spraying with 1×10^7 organisms/ml of conidia of Botrytis cinerea, the seedlings were allowed to stand for about 48 hours in an inoculation room at a room temperature of 20° C. to 23° C. to promote the onset of disease. Disease development was investigated 2 days after inoculation, and the effects thereof were evaluated. Disease development was evaluated using the following indicators for disease control tests evaluated according to the methods described above. Furthermore, preventive values were calculated based on the disease development.

Magnaporthe grisea = details: Test Example 10, D-tagatose only, treatment concentration 5%
[3] = system: Colletotrichum orbiculare; assay: Cucumber anthracnose (CA) control test; details: Test Example 10, D-tagatose only, treatment concentration 5%
Experimental: (CA: Cucumber Anthracnose) Test plants (cucumber variety: Sagami Hanjiro) were planted followed by cultivating until the first leaf appeared. In the test, dilutions (5 ml/pot) obtained by diluting with distilled water so that each formula reached a prescribed concentration were sprayed. After inoculating the seedlings one day after spraying by spraying with 1×10^7 organisms/ml of conidia of Colletotrichum orbiculare, the seedlings were allowed to stand for about 24 hours in an inoculation room at a room temperature of 20° C. to 23° C. to promote the onset of disease. Disease development was investigated 10 days after inoculation, and the effects thereof were evaluated. Disease development was evaluated using the following indicators for disease control tests evaluated according to the methods described above. Furthermore, preventive values were calculated based on the disease development.

Venturia inaequalis = assay: Apple scab (AS) control test; details: Test Example 10, D-tagatose only, treatment concentration 5%
Experimental: (AS: Apple Scab) Test plants (apple variety: Ohrin) were planted followed by cultivating until four first leaves appeared. In the test, dilutions (5 ml/pot) obtained by diluting with distilled water so that each formula reached a prescribed concentration were sprayed. After inoculating the seedlings one day after spraying by spraying with 1×10^5 organisms/ml of conidia of Venturia inaequalis, the seedlings were allowed to stand for about 24 hours in an inoculation room at a room temperature of 18° C. to 20° C. to promote the onset of disease. Disease development was investigated 10 days after inoculation, and the effects thereof were evaluated. Disease development was evaluated using the following indicators for disease control tests evaluated according to the methods described above. Furthermore, preventive values were calculated based on the disease development.

Septoria tritici = assay: Wheat septoria leaf blotch (SLB) control test; details: Test Example 10, D-tagatose only, treatment concentration 5%
Experimental: (SLB: Septoria Leaf Blotch) Test plants (wheat variety: Norin 61) were planted followed by cultivating until the second leaf appeared. In the test, dilutions (5 ml/pot) obtained by diluting with distilled water so that each formula reached a prescribed concentration were sprayed. After inoculating the seedlings one day after spraying by spraying with 1×10^7 organisms/ml of conidia of Septoria tritici, the seedlings were allowed to stand for about 24 hours in an inoculation room at a room temperature of 18° C. to promote the onset of disease. Disease development was investigated 14 days after inoculation, and the effects thereof were evaluated. Disease development was evaluated using the following indicators for disease control tests evaluated according to the methods described above. Furthermore, preventive values were calculated based on the disease development.

Pythium aphanidermatum = assay: Pythium red blight of bentgrass, soil irrigation treatment; details: Comparative Example, main agent only (D-tagatose 80 parts), no assistant; 100-fold dilution, soil irrigation 3 L/m^2; five days after inoculation
Experimental: The effects of the D-tagatose water-soluble powders containing anionic surfactant prepared in Example 11 on grass red blight were evaluated. Test plants (grass variety: Bentgrass) were planted, and three weeks later, cut to a height of 1 cm prior to use in the test. In the test, after inoculating the seedlings with Pythium aphanidermatum preliminarily cultured in wheat bran medium, dilutions obtained by diluting each formula 100-fold with well water were used to treat soil by irrigating at 3 L/m^2 (treatment concentrations: D-tagatose 0.8%+assistant 0.2%). After investigating the onset of disease five days after inoculation, control values were calculated from the diseased area. Effects were evaluated using the same evaluation method as Test Example 10.

Pythium ultimum = assay: Cabbage damping-off, soil irrigation treatment; details: formula containing D-tagatose only, 80-fold dilution (D-tagatose 1%)
Experimental: The effects of the D-tagatose water-soluble powders containing anionic surfactant prepared in Example 11 on […] were evaluated. Test soil was inoculated by contacting with Pythium ultimum preliminarily cultured in wheat bran medium followed by planting the test plants (cabbage variety: Shikidori) therein. The soil was treated by irrigating at 3 L/m^2 with the formulations which had been 80-fold diluted with well water (treatment concentrations: D-tagatose 1%+assistant 0.25%). […] Effects were evaluated using the same evaluation method as Test Example 1. The protective value with respect to cabbage damping-off of a formula containing D-tagatose only was 29.9.

[4] = Test Example 12, D-tagatose 5 parts + Assistant 1 5 parts, 10-fold dilution (D-tagatose 0.5% + Assistant 1 0.5%)
[5] = formula containing D-tagatose only, treatment concentration 0.8%

## O=C(CO)[C@@H](O)[C@@H](O)[C@H](O)CO [D-tagatose, reference compound]
[1]; treatment concentration 0.8%
  control effect against cucumber downy mildew: not adequate
[1]; treatment concentration 5%
  control effect against cucumber downy mildew: high control effect
[1]; [4]
  Protective Value Index CDM, Assistant 1: 2 (Preventive value of 60 to less than 80)
[1]; formula containing D-tagatose only, treatment concentration 0.4%
  preventive value, cucumber downy mildew: about 50 (40 to 60)
Plasmopara viticola; treatment concentration 0.8%
  control effect against grape vine downy mildew: not adequate
Plasmopara viticola; treatment concentration 5%
  control effect against grape vine downy mildew: high control effect
Plasmopara viticola; [4]
  Protective Value Index VDM, Assistant 1: 1 (Preventive value of 30 to less than 60)
Plasmopara viticola; [5]
  preventive value, grape vine downy mildew: about 40 (30 to 50)
Sphaerotheca cucurbitae; treatment concentration 0.8%
  control effect against cucumber powdery mildew: not adequate
Sphaerotheca cucurbitae; treatment concentration 5%
  control effect against cucumber powdery mildew: high control effect
Sphaerotheca cucurbitae; [4]
  Protective Value Index CPM, Assistant 1: 2 (Preventive value of 60 to less than 80)
Sphaerotheca cucurbitae; [5]
  preventive value, cucumber powdery mildew: about 50 (40 to 60)
Puccinia recondita; Test Example 10, D-tagatose only, treatment concentration 5%
  effects against wheat rust: not adequate
Puccinia recondita; [5]
  preventive value, wheat rash: about 5 (0 to 10)
Phytophthora infestans
  effects against tomato late blight: not adequate
[2]; treatment concentration 0.8%
  control effect against barley powdery mildew: not adequate
[2]; treatment concentration 5%
  control effect against barley powdery mildew: high control effect
Phakopsora ampelopsidis
  effects against grape vine rust: not adequate
Phakopsora pachyrhizi
  effects against soybean rust: not adequate
Botrytis cinerea
  effects against tomato gray mold: not adequate
Magnaporthe grisea
  effects against rice blast: not adequate
[3]
  effects against cucumber anthracnose: not adequate
Venturia inaequalis
  effects against apple scab: not adequate
Septoria tritici
  effects against wheat speckled leaf blotch: not adequate
Pythium aphanidermatum
  Preventive Value Indices, bentgrass red blight: 1 (Preventive value of 30 to less than 60)
Pythium ultimum
  protective value, cabbage damping-off: 29.9
